The values that follow are results of earlier work, collected in patent US20040009220A1, “Rate-controlled beta blockers and process for forming same” (priority 2001, published 2004).

For data set [1] the following is noted: in man.

SMILES strings stand for the structures.

Take `COCCc1ccc(OCC(O)CNC(C)C)cc1` (centres unmarked) [Metroprolol]: the plasma half life entry in data set [1] is “three to seven”.
For the compound `COCCc1ccc(OCC(O)CNC(C)C)cc1` (centres unmarked) [metoprolol succinate], the solubility in water result is listed as “freely soluble in water”.
